Legend:
MTAP(+) ML-1 cells = experiment: Coulter counts of ML-1 suspension cultures; assay type: cell-based
Protocol: (§1) For cell types that grow in suspension (e.g., ML-1, HL-60, K-562) medium was RPMI-1640 with 10% FBS (undialyzed).
(§2) For adherent cell types, cell numbers were determined periodically by releasing cells with trypsin (dead cells that were no longer adherent were removed by two prior rinses of the culture dish) and placing a portion of the resulting cell suspension in a Coulter counter. For cell types that grow in suspension, portions of the culture were counted directly, without trypsin treatment. Coulter counts of cells from each dish were done twice, and almost all experiments were done in duplicate. In the presentation of results, raw data for Coulter counts is given in some cases, while in others, counts have been rounded off to two to three significant figures. (Background Coulter counts—i.e., counts of diluent alone—were insignificant.)
(§3) For cells that grow in suspension, the effect of treatments was assessed solely by changes in Coulter count.
• ML-1 cells were incubated in RPMI 1640 with 10% FBS with 5′-dAdo (60 μM) for 6 hours. 5-fluorouracil (FU), 6-thioguanine (TG), or 2,6-diaminopurine (DAP) were then added, and after 2 additional days, 0.5 ml was taken for Coulter counts. Initial Coulter count/ml: 308,000

MTAP(+) HF cells [1] = experiment: Coculture of HF and A549-ouaR cells, clonogenic assay; assay type: cell-based, human; details: addition of 5′-dAdo to DAP
Protocol: (§4) Cell viability of adherent cell types was measured by clonogenic assay as follows: after releasing cells with trypsin and removing a portion of the cell suspension for Coulter counting, the remainder of the cell suspension was plated in serial dilutions in growth medium, without drugs. After a period sufficient for clones to reach a size visible by eye (usually 2 to 3 weeks), clones were stained with crystal violet in a saline/methanol solution. Dishes that had fewer than 100 clones were deemed suitable for counting. From these counts and from the dilution factors, the approximate number of viable cells, in the parent treatment dishes, was calculated. […] In clonogenic assays, clone size was often variable, especially after treatment with toxic drugs. Moreover, many of the very small clones may have arisen from cells detached during the weeks of incubation. […] Cloning efficiency for healthy, growing A549 cells was about 50%; for HF cells, efficiency was quite variable, ranging from 25 to 75% (perhaps because the HF cell stock varied, from experiment to experiment, in passage number).
HF and A549-ouaR (a ouabain-resistant derivative of the human lung carcinoma cell line A549, isolated by Applicants) cells were cultured together in a medium containing DAP, and with or without 5′-dAdo. After 3 days, cultures were trypsinized and serially diluted into fresh medium for clonogenic assays. Some dishes were treated with 0.1 μM ouabain to kill HF cells and permit easy visualization of surviving A549-ouaR clones. Initial viable cells: HF cells, 11,000; A549-ouaR cells, 40,000.

MTAP(−) A549 cells = experiment: Clonogenic assay of A549 cells; assay type: cell-based, human
Protocol: as §4
A549 cells were incubated for 4 days with additions shown below, and viable cells measured by clonogenic assay. (Results shown are approximate; see Methods) Cell count in dish at start: 40,000
• MTAP(−) A549 lung tumor cell cultures were treated with F-Ade, with or without MTA, 5′-dAdo, or adenine (Ade), for three days. Coulter counts of cells, and viable cells as determined by clonogenic assay, are shown below: • Initial cell number: 10,340*
• A549 cell cultures were treated with DAP, with or without 5′-dAdo or adenine, for three days. After trypsinization, one-fourth of the cell suspension was counted, and raw data is shown below, with duplicate counts for each sample. The cell suspension was also serially diluted for clonogenic assay. • Counts at start of experiment: Dish one: 36,480; 39,160; Dish two: 52,680; 51,360. • Initial viable cells by clonogenic assay: 180,000.
• Cell cultures were treated with MTX or alanosine for one day. DAP was then added and 3 days later, cells were trypsinized and serially diluted for clonogenic assay. Results are shown below: • Initial viable cells: 146,000
• A549 cells were plated, and after they had adhered to the substrate, medium was changed to methionine-free medium with 10% dialyzed serum. L-ethionine (Eth) and MTA were added, and after 4 days, cell cultures were trypsinized and serially diluted for clonogenic assay. • Initial number of viable cells: 160,000*
• A549 cultures were treated with 6-thioguanine (TG) or 2,6,diaminopurine (DAP), or both, for 3 days. • Initial viable cells: 275,000 • After 3 days: […]

MTAP-negative cell lines = experiment: Applicants' tissue culture experiments on MTAP-negative cell lines (summary statements); assay type: cell-based, human; mouse; details: L1210, HL-60, K-562, MCF7, MDA-MB-231, A549, PANC-1
[2] = system: MTAP(+) HT29 colon carcinoma cells; experiment: Coulter counts of HT29 cultures; assay type: cell-based, human; details: Example 12
Protocol: as §2
• 5′-dAdo was added to cultures of MTAP(+) HT29 colon carcinoma cells for one day. 5-fluorouracil (FU) was then added and 4 days later cultures were trypsinized, thoroughly dispersed into mostly single cells by vigorous pipetting, and counted. • Initial Coulter count at time of addition of FU: 46,000

MTAP(−) HL-60 cells = experiment: Coulter counts of HL-60 suspension cultures; assay type: cell-based; details: Example 13
Protocol: as §1, §2, §3
• HL-60 cells were grown in RPMI 1640 with 10% FBS. 5′-dAdo, adenine, or neither were added, and after 3 hours, 5-fluorouracil (FU) was added to selected dishes. Six days later, cell numbers were assessed in a Coulter counter. • Initial cell number/ml: 8,160

[3] = system: MTAP-positive cells and cells lines; experiment: Applicants' tissue culture experiments on protection of MTAP-positive cells (summary statements); assay type: cell-based, human; mouse
mice = details: high doses; cited from earlier work
MTAP(+) HF cells [4] = experiment: Clonogenic assay of HF cells; assay type: cell-based, human; details: 30 μM 5′-dAdo, 2 μM F-Ade, 3 days
Protocol: as §4
• B. F-Ade was added to cultures of MTAP(+) HF cells, with or without 5′-dAdo, for 3 days. Cultures were then trypsinized and serially diluted for clonogenic assay. • Initial number of viable cells per dish: 45,000 • Viable cells after 3 days shown below:
• HF cells were plated, and after they had adhered to the substrate, medium was changed to methionine-free medium, with 10% dialyzed serum. • Initial Coulter count: 73,000*; viable cells: 88,000 • After 3 days in methionine-free medium, with or without L-ethionine (Eth) or MTA: […]

For `C[C@H]1O[C@@H](n2cnc3c(N)ncnc32)[C@H](O)[C@@H]1O` [5′-dAdo, 5′-deoxyadenosine], the “Increase in cell number/ml, 60 μM 5′-dAdo” value (MTAP(+) ML-1 cells; 5′-dAdo 60 μM for 6 hours, then 2 days with FU 3 μM, TG 20 μM, DAP 50 μM where present, initial Coulter count/ml 308,000) was 918,000 /ml, the “protection against growth inhibition caused by FU, TG and DAP, individually and in combination” value (MTAP(+) ML-1 cells; Example 14) was “effectively protected” and the “protection of HF cells from DAP in coculture” value (MTAP(+) HF cells [1]) was “protected”. For the same molecule, the “blocking of MeP toxicity in A549 cells” value (MTAP(−) A549 cells; 10 μM MeP) was “not”, the “blocking of DAP toxicity in A549 cells” value (MTAP(−) A549 cells; 100 μM DAP, Example 7) was “did not block” and the “blocking of F-Ade toxicity in A549 cells” value (MTAP(−) A549 cells; 1 to 2 μM F-Ade) was “not”. The “protection against the toxicity of adenine and/or methionine antagonists” value (MTAP-negative cell lines) was “inability”, the “blocking of FU toxicity in MTAP(+) HT29 cells” value [2] was “blocked” and the “protection of HL-60 cells from FU toxicity” value (MTAP(−) HL-60 cells) was “not protected”. For the same molecule, the “protection from highly toxic doses of adenine and/or methionine competitive antagonists” value ([3]; HF, mouse hematopoietic progenitors, HT-29, ML-1, EJ, T-47D, ZR-75-1, MDA-MB-468) was “provide protection”, the “blocking of toxicity of very high doses of 2,6-diaminopurine, 2-fluoroadenine, 6-methylpurine” value ([3]; normal human and mouse cells) was “effectively blocked” and the toxicity in vivo (mice) was “non-toxic”. For the same molecule, the “blocking of F-Ade toxicity in HF cells” value (MTAP(+) HF cells [4]) was “effectively blocks”.
